In patent US20200128830A1, “FUSED BICYCLIC HETEROCYCLE DERIVATIVES AS PESTICIDES” (Bayer Aktiengesellschaft, priority 2017, published 2020):

Columns and labels:
Format in all cases: in vivo
Myzus persicae [1] = assay: Myzus persicae oral test; details: 120 h, mixed population of green peach aphids, after 5 days, read-out: efficacy; for pest or weed control at 4 ppm: application rate 4 ppm
Method: Myzus persicae—Oral Test [table] To produce a suitable active compound formulation, 1 part by weight of active compound is dissolved with the stated parts by weight of solvent and made up to the desired concentration with water. 50 μl of the active compound formulation are transferred into microtitre plates and made up to a final volume of 200 μl with 150 μl of IPL41 insect medium (33%+15% sugar). Subsequently, the plates are sealed with parafilm, which a mixed population of green peach aphids (Myzus persicae) within a second microtitre plate is able to puncture and imbibe the solution. After 5 days, the efficacy in % is determined. 100% means that all the aphids have been killed; 0% means that no aphids have been killed.

Phaedon cochleariae = Phaedon cochleariae spray test; details: foliar, 168 h, application rate 100 g/ha, larvae on Chinese cabbage leaf discs, after 7 days, read-out: efficacy
Method: Phaedon cochleariae—Spray Test
(§1) To produce a suitable active compound formulation, 1 part by weight of active compound is dissolved with the specified parts by weight of solvent and made up to the desired concentration with water containing an emulsifier concentration of 1000 ppm. To produce further test concentrations, the formulation is diluted with emulsifier-containing water.
Discs of Chinese cabbage leaves (Brassica pekinensis) are sprayed with an active compound formulation of the desired concentration and, after drying, populated with larvae of the mustard beetle (Phaedon cochleariae).
After 7 days, the efficacy in % is determined. 100% means that all the beetle larvae have been killed; 0% means that no beetle larvae have been killed.

Spodoptera frugiperda = Spodoptera frugiperda spray test; details: foliar, 168 h, application rate 100 g/ha, caterpillars on maize leaf discs, after 7 days, read-out: efficacy
Method: Spodoptera frugiperda—Spray Test [table] To produce a suitable active compound formulation, 1 part by weight of active compound is dissolved with the specified parts by weight of solvent and made up to the desired concentration with water containing an emulsifier concentration of 1000 ppm. To produce further test concentrations, the formulation is diluted with emulsifier-containing water. Leaf discs of maize (Zea mays) are sprayed with an active compound formulation of the desired concentration and, after drying, populated with caterpillars of the fall armyworm (Spodoptera frugiperda). After 7 days, the efficacy in % is determined. 100% means that all the caterpillars have been killed; 0% means that no caterpillar has been killed.

Myzus persicae [2] = assay: Myzus persicae spray test; details: foliar, 120 h, application rate 100 g/ha, Chinese cabbage leaf discs infested by all stages, after 5 days, read-out: efficacy
Method: Myzus persicae—Spray Test [table] To produce a suitable active compound formulation, 1 part by weight of active compound is dissolved with the specified parts by weight of solvent and made up to the desired concentration with water containing an emulsifier concentration of 1000 ppm. To produce further test concentrations, the formulation is diluted with emulsifier-containing water. Discs of Chinese cabbage leaves (Brassica pekinensis) infested by all stages of the green peach aphid (Myzus persicae) are sprayed with an active compound formulation of the desired concentration. After 5 days, the efficacy in % is determined. 100% means that all the aphids have been killed; 0% means that no aphids have been killed.

Ctenocephalides felis = Ctenocephalides felis oral test; details: application rate 100 ppm in citrated cattle blood; unfed adult cat fleas; after 2 days
Method: Ctenocephalides felis—Oral Test Solvent: Dimethyl Sulfoxide To produce a suitable active compound formulation, 10 mg of active compound are mixed with 0.5 ml of dimethyl sulfoxide. Dilution with citrated cattle blood gives the desired concentration. About 20 unfed adult cat fleas (Ctenocephalides felis) are placed into a chamber which is closed at the top and bottom with gauze. A metal cylinder whose bottom end is closed with parafilm is placed onto the chamber. The cylinder contains the blood/active compound formulation, which can be imbibed by the fleas through the parafilm membrane. After 2 days, the kill in % is determined. 100% means that all of the fleas have been killed; 0% means that none of the fleas have been killed.

Musca domestica = Musca domestica test; details: application rate 100 ppm; adult houseflies, sponge with sugar solution; after 2 days
Method: Musca domestica Test Solvent: Dimethyl Sulfoxide To produce a suitable active compound formulation, 10 mg of active compound are mixed with 0.5 ml of dimethyl sulfoxide, and the concentrate is diluted with water to the desired concentration. Vessels containing a sponge treated with sugar solution and the desired concentration of active compound formulation are populated with 10 adult houseflies (Musca domestica). After 2 days, the kill in % is determined. 100% means that all of the flies have been killed; 0% means that none of the flies have been killed.

Tetranychus urticae = Tetranychus urticae spray test, OP-resistant; details: application rate 100 g/ha, bean leaf discs infested with all stages, after 6 days
Method: Tetranychus urticae—Spray Test, OP-Resistant
as §1
Discs of bean leaves (Phaseolus vulgaris) infested with all stages of the greenhouse red spider mite (Tetranychus urticae) are sprayed with an active compound formulation of the desired concentration.
After 6 days, the efficacy in % is determined. 100% means that all the spider mites have been killed; 0% means that no spider mites have been killed.

Lucilia cuprina = Lucilia cuprina test; details: application rate 100 ppm; L1 larvae on minced horsemeat; after 2 days
Method: Lucilia cuprina Test Solvent: Dimethyl Sulfoxide To produce a suitable active compound formulation, 10 mg of active compound are mixed with 0.5 ml of dimethyl sulfoxide, and the concentrate is diluted with water to the desired concentration. About 20 L1 larvae of the Australian sheep blowfly (Lucilia cuprina) are transferred into a test vessel containing minced horsemeat and the active compound preparation of the desired concentration. After 2 days, the kill in % is determined. 100% means that all the larvae have been killed; 0% means that no larvae have been killed.

SMILES | pest or weed control at 4 ppm (Myzus persicae [1]) [%] | pest or weed control at 100 g/ha (Phaedon cochleariae) [%] | pest or weed control at 100 g/ha (Spodoptera frugiperda) [%] | pest or weed control at 100 g/ha (Myzus persicae [2]) [%] | also measured
CCS(=O)(=O)c1c(-c2nc3cc(C(F)(F)F)cnc3n2C)sc2nc(C(F)(F)F)sc12 [I-13] | 90 | 100 | 100 |  | 
CCS(=O)(=O)c1c(-c2nc3cc(C(F)(F)F)ncc3n2C)sc2c(-c3cnn(C)c3)csc12 [I-11, 2-[3-(Ethylsulfonyl)-6-(1-methyl-1H-pyrazol-4-yl)thieno[3,2-b]thiophen-2-yl]-3-methyl-6-(trifluoromethyl)-3H-imidazo[4,5-c]pyridine] | 90 | 83 |  | 90 | 
CCS(=O)(=O)c1c(-c2nc3cc(C(F)(F)F)ncc3n2C)sc2c(NC(C)=O)csc12 [I-6, N-{6-(Ethylsulfonyl)-5-[3-methyl-6-(trifluoromethyl)-3H-imidazo[4,5-c]pyridin-2-yl]thieno[3,2-b]thiophen-3-yl}acetamide] |  |  |  | 90 | 
CCS(=O)(=O)c1c(-c2nc3cc(C(F)(F)F)ncc3n2C)sc2c(-c3ccccc3)csc12 [I-16, 2-[3-(Ethylsulfonyl)-6-phenylthieno[3,2-b]thiophen-2-yl]-3-methyl-6-(trifluoromethyl)-3H-imidazo[4,5-c]pyridine] | 100 |  | 100 | 90 | 
CCS(=O)(=O)c1c(-c2nc3cc(C(F)(F)F)nnc3n2C)sc2cc(C(F)(F)F)sc12 [I-18] | 100 | 100 | 100 | 100 | efficacy (kill in %) (Ctenocephalides felis): 100%; efficacy (kill in %) (Musca domestica): 80%
CCS(=O)(=O)c1c(-c2nc3cc(C(F)(F)C(F)(F)F)ncc3n2C)sc2nc(C(F)(F)F)sc12 [I-14] | 90 | 100 | 100 | 90 | 
CCS(=O)(=O)c1c(-c2nc3cc(C(F)(F)F)ncc3n2C)sc2c(C(=O)NC)csc12 [I-24] | 100 |  |  | 90 | 
CCS(=O)(=O)c1c(-c2nc3cc(C(F)(F)F)ncc3n2C)sc2c(C(N)=O)csc12 [I-15, 6-(Ethylsulfonyl)-5-[3-methyl-6-(trifluoromethyl)-3H-imidazo[4,5-c]pyridin-2-yl]thieno[3,2-b]thiophene-3-carboxamide] | 100 |  |  | 90 | efficacy (Tetranychus urticae): 90%
CCS(=O)(=O)c1c(-c2nc3cc(C(F)(F)F)ncc3n2C)sc2cc(C(F)(F)F)sc12 [I-7] |  |  |  | 100 | efficacy (Tetranychus urticae): 90%; efficacy (kill in %) (Ctenocephalides felis): 95%; efficacy (kill in %) (Musca domestica): 80%
CCS(=O)(=O)c1c(-c2nc3cc(C(F)(F)F)ncc3n2C)sc2cc(C)sc12 [I-22] | 100 |  |  | 90 | 
CCS(=O)(=O)c1c(-c2nc3cc(C(F)(F)F)ncc3n2C)sc2c(Br)csc12 [I-8, 2-[6-Bromo-3-(ethylsulfonyl)thieno[3,2-b]thiophen-2-yl]-3-methyl-6-(trifluoromethyl)-3H-imidazo[4,5-c]pyridine] | 100 |  | 100 |  | 
CCS(=O)(=O)c1c(-c2nc3cc(C(F)(F)F)ncc3n2C)sc2c(C#N)csc12 [I-5, 6-(Ethylsulfonyl)-5-[3-methyl-6-(trifluoromethyl)-3H-imidazo[4,5-c]pyridin-2-yl]thieno[3,2-b]thiophene-3-carbonitrile] | 100 |  |  |  | 
CCS(=O)(=O)c1c(-c2nc3cc(C(F)(F)F)nnc3n2C)sc2nc(C(F)(F)F)sc12 [I-9] | 100 | 100 | 100 |  | 
CCS(=O)(=O)c1c(-c2nc3cc(C(F)(F)F)ncc3n2C)sc2c(NC(=O)C3CC3)csc12 [I-19] |  |  |  |  | pest or weed control at 0.8 ppm (Myzus persicae [1]; application rate 0.8 ppm): 100%
CCS(=O)(=O)c1c(-c2nc3cc(C(F)(F)F)ncc3n2C)sc2cc(C(F)(F)F)sc12 [I-3, 2-[3-(Ethylsulfonyl)-5-(trifluoromethyl)thieno[3,2-b]thiophen-2-yl]-3-methyl-6-(trifluoromethyl)-3H-imidazo[4,5-c]pyridine] | 100 | 100 | 100 |  | 
CCS(=O)(=O)c1c(-c2nc3cc(C(F)(F)F)ncc3n2C)sc2cc(Cl)sc12 [I-25] | 100 |  | 100 | 90 | 
CCS(=O)(=O)c1c(-c2nc3cc(C(F)(F)F)ncc3n2C)sc2c(-n3cnc(C(F)(F)F)c3)csc12 [I-21] | 100 | 100 | 100 | 90 | 
CCS(=O)(=O)c1c(-c2nc3cc(C(F)(F)F)ncc3n2C)sc2nc(C(F)(F)F)oc12 [I-12] | 100 | 100 | 100 | 100 | efficacy (Tetranychus urticae): 90%; efficacy (kill in %) (Ctenocephalides felis): 80%; efficacy (kill in %) (Musca domestica): 85%
CCS(=O)(=O)c1c(-c2nc3cc(C(F)(F)F)ncc3n2C)sc2c(C3CC3)csc12 [I-23] | 100 |  | 100 |  | 
CCS(=O)(=O)c1c(-c2nc3cc(C(F)(F)F)ncc3n2C)sc2c(-n3cc(Cl)cn3)csc12 [I-20, 2-[6-(4-Chloro-1H-pyrazol-1-yl)-3-(ethylsulfonyl)thieno[3,2-b]thiophen-2-yl]-3-methyl-6-(trifluoromethyl)-3H-imidazo[4,5-c]pyridine] | 100 | 100 | 100 |  | 
CCS(=O)(=O)c1c(-c2nc3cc(C(F)(F)F)ncc3n2C)sc2ccoc12 [I-2, 2-[6-(Ethylsulfonyl)thieno[3,2-b]furan-5-yl]-3-methyl-6-(trifluoromethyl)-3H-imidazo[4,5-c]pyridine] | 100 |  |  |  | efficacy (kill in %) (Lucilia cuprina): 100%
CCS(=O)(=O)c1c(-c2nc3cc(C(F)(F)F)ncc3n2C)sc2ccsc12 [I-1] | 100 |  |  |  | efficacy (kill in %) (Lucilia cuprina): 100%
CCS(=O)(=O)c1c(-c2nc3cc(C(F)(F)F)ncc3n2C)sc2c1CCC2 [I-4, 2-[3-(Ethylsulfonyl)-5,6-dihydro-4H-cyclopenta[b]thiophen-2-yl]-3-methyl-6-(trifluoromethyl)-3H-imidazo[4,5-c]pyridine] | 100 |  |  |  | efficacy (kill in %) (Lucilia cuprina): 90%
CCS(=O)(=O)c1c(-c2nc3cc(C(F)(F)F)ncc3n2C)sc2c1C(=O)CC2 [I-30] |  |  |  |  | efficacy (Tetranychus urticae): 90%
